Assay [1] deals with Brown tree snakes (Boiga irregularis). Put plainly: Aerosol tests: 2 s aerosol spray onto snake's head, behavior observed for 5 min. The format is in vivo. As to conditions: single reagents; for activity category from cluster analysis of behaviors (clusters I-V): Ward's method on VM, SM, LAT, TOT, % VM, % SM; for latency to response (movement latency) / movement when sprayed: 2 s aerosol; for latency to response (movement latency): post-hoc comparison with amyl acetate; for movement when sprayed: 5 min observation. How it is done:
Brown tree snakes (Boiga irregularis), N=400, were captured on the island of Guam along forest-jungle edge using modified minnow traps with live mice lures or by hand after being spot-lighted on fences. Snakes were individually housed in plastic containers until tested. The holding containers were housed in a military warehouse on Andersen Air Force Base, Guam under a 12:12 light:dark cycle. In general snakes were tested only once. […] Capture of snakes occurred during three separate visits to the island: 1997, 1998, 1999.
Essential oils and individual chemicals were diluted into an inert carrier liquid (water) for the purpose of testing. An emulsifying agent (3× yucca extract) was added to the composition to stabilize the water insoluble essential oils and individual chemicals in aqueous solution. The test formulations consisted of 1% test agent (i.e., a specific essential oil or chemical), 1% 3× yucca extract and 98% water. The formulated contents were held in a reservoir in which a siphon was suspended. Pressurized air, contained in an aerosol can was passed over the orifice of the siphon to create a negative pressure which would drawn the test formulation up through the siphon and eject the formulated contents and pressurized air through a small bore nozzle to create an atomized liquid, i.e. aerosol spray.
For testing, the holding tub was moved to the observation room and the solid lid was replaced with a lid with a screen insert. […] Snakes that became active as a result of the handling were not used in the assay. After a 15 min interval where the snake remained in a coiled position, aerosol was sprayed directly onto the snake's head for 2 s at a distance of 30 mm. Immediately after aerosol application, the observer moved to an observation distance of 3 m. We limited observations to the 5 min following aerosol applications. […] Also, in pilot tests, and with only few exceptions, the escape activity of the snake given an acute (2 s) exposure to the chemical subsided after 5 min.
Behaviors were categorized by a trained observer as follows: VM was a violent, vigorous movement by snakes exposed to the aerosol. This movement was characterized by undirected flailing and vigorous probing of the creases of the test chamber. SM, was characterized as a directed, slow search behavior, often accompanied by tongue flicks. This behavior could also be classified as investigatory behavior. In both cases the duration (s) of these behaviors was noted. The time from the application of the stimulus to the onset of either VM or SM was defined as the latency, LAT-VM and LAT-SM, respectively. For the purposes of analysis we used the latency to the first locomotory behavior, LAT, as the quantifiable metric. TOT was defined as the total amount of time (s) that a snake was engaged in locomatory behavior. The time spent in each locomatory behavior relative to the total active time was defined as % VM and % SM, respectively.
We used a fixed effects analysis of variance for the a priori comparison across chemicals. In the first set of analyses, essential oil was the between measures effects while behavior was the dependent variable. We used a post hoc Tukey's Honest Significance Difference test to isolate differences among test stimuli for each of the behavioral measures. Similar analyses were performed for the single reagents. We also categorized reagents into groups that yielded similar combinations of behaviors using cluster analysis (STATISTICA 1999). Amalgamation of clusters was achieved using Ward's method. This approach is distinct from most clustering algorithms in that it uses an analysis of variance approach to evaluate the distances between clusters. The distance measure used was a Chebychev distance. This approach tends to maximize the number of clusters because it is sensitive to differences among objects along single dimensions. The behavioral dimensions considered were: VM, SM, LAT, TOT, % VM, and % SM.

The test system of the next assay is brown treesnakes. The settings on record: in vivo; cited from earlier work.

In the case of `CC(C)C12CCC(C)(CC1)O2` [1,4-cineole], the “activity category from cluster analysis of behaviors (clusters I-V)” value (“activity category from cluster analysis” for short) in assay [1] is “most active”.

`c1ccc2ccccc2c1` [Naphthalene]: in the assay on brown treesnakes, the “irritant to brown treesnakes” value was “not an irritant”.

For `CC1=CCC2CC1C2(C)C` (stereo not shown) [a-pinene], the “activity category from cluster analysis” value in assay [1] was “moderately active”.

As for `CC1=CC=C(C(C)C)CC1` [a-terpinene], in assay [1], the “latency to response (movement latency)” value is on record as “longer than amyl acetate” and the “activity category from cluster analysis” value is listed as “only weakly active”.

Consider `CCCCCOC(C)=O` [amyl acetate], for which, in assay [1], the “latency to response (movement latency)” value is “shortest” and the “activity category from cluster analysis” value is “highly irritating, but poor at promoting long-term locomatory behavior”.

On to `CC12CCC(CC1=O)C2(C)C` (stereo not shown) [camphor], for which, in assay [1], the movement when sprayed entry is given as “did not move at all”, the “latency to response (movement latency)” value was “longer than amyl acetate” and the “activity category from cluster analysis” value is reported as “did not react”.

With `O=CC=Cc1ccccc1` [cinnamaldehyde], the “activity category from cluster analysis” value in assay [1] is on record as “most active”.

For `O=C(O)C=Cc1ccccc1` [cinnamic acid], in assay [1], the movement when sprayed entry is on record as “did not move at all”, the “latency to response (movement latency)” value was “longer than amyl acetate” and the “activity category from cluster analysis” value is reported as “did not react”.

For the compound `CC(C)=CCCC(C)=CC=O` [citral], the “activity category from cluster analysis” value in assay [1] was “most active”.

Regarding `CCCC(=O)OCC` [ethyl butyrate], in assay [1], the “latency to response (movement latency)” value is reported as “longer than amyl acetate” and the “activity category from cluster analysis” value is listed as “only weakly active”.

Turning to `CCOC(=O)Cc1ccccc1` [ethyl phenyl acetate], in assay [1], the “activity category from cluster analysis” value was “moderately active”.

As for `C=CCc1ccc(O)c(OC)c1` [eugenol], the “activity category from cluster analysis” value in assay [1] was “moderately active”.

For the compound `CC(C)=CCC/C(C)=C/CO` [geraniol], in assay [1], the movement when sprayed result is given as “did not move at all”, the “latency to response (movement latency)” value is given as “longer than amyl acetate” and the “activity category from cluster analysis” value was “did not react”.

Take `CC(=O)OC/C=C(\C)CCC=C(C)C` [geranyal acetate]: in assay [1], the “activity category from cluster analysis” value is on record as “most active”.

Take `C=C(C)[C@H]1CC=C(C)CC1` [limonene]: in assay [1], the “latency to response (movement latency)” value is reported as “longer than amyl acetate” and the “activity category from cluster analysis” value is listed as “only weakly active”.

On to `C=CC(C)(O)CCC=C(C)C` (stereo not shown) [linalool], for which, in assay [1], the “latency to response (movement latency)” value was “longer than amyl acetate” and the “activity category from cluster analysis” value was “only weakly active”.

As for `COc1cccc(C=O)c1` [m-anisaldehyde], the “activity category from cluster analysis” value in assay [1] is listed as “most active”.

In the case of `CC(C)[C@@H]1CC[C@@H](C)CC1=O` [menthone], the “activity category from cluster analysis” value in assay [1] was “highly irritating, but poor at promoting long-term locomatory behavior”.

With `COC(=O)c1ccccc1N` [methyl anthranilate], in assay [1], the “activity category from cluster analysis” value is reported as “highly irritating, but poor at promoting long-term locomatory behavior”.

As to `COC(=O)c1ccccc1O` [methyl salicylate], the “activity category from cluster analysis” value in assay [1] is listed as “most active”.

Take `CC(C)=CCC/C(C)=C\CO` [nerol]: in assay [1], the “latency to response (movement latency)” value was “longer than amyl acetate” and the “activity category from cluster analysis” value is recorded as “moderately active”.

As for `C/C=C/c1ccc(OC)cc1` [trans-anethole], the “activity category from cluster analysis” value in assay [1] was “most active”.

Values taken from patent US6689397B2, “Identification of snake repellents” (priority 1999, dated 2004).
